Measured values as given in US7160983B2, “Echinocandin derivatives, their method of preparation and their application as anti-fungal agents” (Aventis Pharma S.A., priority 1997, dated 2007).

Test system: Glucane Synthesis of Candida Albicans
Test: Inhibition of the glucane synthesis of Candida albicans (membrane preparation, 14C-UDP glucose incorporation)
Format: biochemical
Conditions: Candida albicans membranes, 25° C., 1 hour
Protocol: Pharmacological Study A—Inhibition of the Glucane Synthesis of Candida Albicans.
The membranes of Candida albicans are purified according to the process described by Tang and al Antimicrob. Agents Chemother 35, 99–103, 1991. 22.5 μg of membrane proteins are incubated in a mixture of 2 Mm of 14C-UDP glucose (specific activity=0.34 mCi./mmol, 50 μg of α-amylase, 1 Mm of dithiotreitol (DTT), 1 Mm EDTA, 100 Mm NaF, 7 μM of GTP-γ-S, 1M of sucrose and 5 oMm OF Ttris-HCL (pH 7.8) in a volume of 100 μl. The medium is incubated at 25° C. for 1 hour and the reaction terminated by addition of TCA to a final concentration of 5%. The reaction medium is transferred onto a pre-humidified glass fibre filter. The filter is washed, dried and its radioactivity is counted.
Mulundocandin is used as positive control.
The control of the medium is carried out with the same quantity of DMSO 1%.

Substance | Inhibition of the glucane synthesis of Candida albicans (activity in words)
Trifluoroacetate of 1-[4-[(2-aminoethyl) amino]N2-[[4′-(octyloxy)[1.1′-biphenyl]-4-[carbonyl]-L-ornithine]4-[4-(4-(4-hydroxyphenyl)-L-threonine]-5-L serine echinocandin B (isomer A) [Example 14] | good activity
Trifluoroacetate of 1-[4-[(2-aminoethyl) amino]-N2-(12-methyl-1-oxotetradecyl)-L-ornithine]4-[4-(4-hydroxyphenyl)-L-threonine]-5-L serine echinocandin B (isomer A and isomer B) [Example 9] | good activity
(±) Trifluoroacetate of 1-[4-[(aminoiminomethyl)hydrazono]-N2-(12-methyl-1-oxotetradecyl)-L-ornithine]4-[4-(4-hydroxyphenyl)-L-threonine]-5-L serine echinocandin B [Example 11] | good activity
